This passage reports EC50 results from patent US12116388B2, “Amylin receptor agonists” (Novo Nordisk A/S, priority 2022, dated 2024).

In experiment [1] the target is T1, human amylin receptor (hAMYR3) (Homo sapiens, UniProt O60896+P30988).
T1 construct: host or cells: BHK (Baby Hamster Kidney), Hollex-1 cell line further transfected with RAMP3
The experiment is described as follows: Human amylin receptor (hAMYR3) in vitro potency assay, CRE-luciferase reporter in BHK cells. Format: cell-based. The settings on record: BHK hAMYR3/CRE-Luc cells, 3 hours incubation, assay buffer with 1% ovalbumin. The method, boiled down:
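BHK cells stably expressing human calcitonin receptor (a) plus RAMP3 and a CRE-luciferase reporter, seeded overnight, then exposed to 7-point 7-fold dilutions (often from ~10 nM) in DMEM/HEPES buffer with 1% ovalbumin for 3 h at 37 °C. Luciferase luminescence read after SteadyLite Plus addition.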
For orientation: A reporter such as luciferase makes a cellular process visible.

In experiment [2] the target is T2, human calcitonin receptor (hCTR) (Homo sapiens, UniProt P30988).
T2 construct: host or cells: BHK (Baby Hamster Kidney), Hollex-1 cell line
T2 sequence (P30988 25-474): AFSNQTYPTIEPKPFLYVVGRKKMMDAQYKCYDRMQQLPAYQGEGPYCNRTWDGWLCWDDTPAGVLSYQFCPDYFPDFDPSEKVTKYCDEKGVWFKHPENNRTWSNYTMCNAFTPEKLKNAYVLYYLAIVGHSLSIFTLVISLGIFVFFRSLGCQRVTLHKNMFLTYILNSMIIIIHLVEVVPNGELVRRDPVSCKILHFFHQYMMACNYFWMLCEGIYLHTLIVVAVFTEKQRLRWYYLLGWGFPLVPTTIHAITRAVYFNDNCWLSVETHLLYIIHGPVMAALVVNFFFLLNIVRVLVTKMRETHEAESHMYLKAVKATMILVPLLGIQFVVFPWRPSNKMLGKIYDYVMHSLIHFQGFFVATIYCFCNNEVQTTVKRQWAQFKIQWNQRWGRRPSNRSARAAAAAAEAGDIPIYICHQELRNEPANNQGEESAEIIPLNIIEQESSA
The experiment is described as follows: Human calcitonin receptor (hCTR) in vitro potency assay, CRE-luciferase reporter in BHK cells. It counts as cell-based. The settings on record: BHK hCTR/CRE-Luc cells, 3 hours incubation, assay buffer with 1% ovalbumin; read-out: hCalcR potency, EC50. The method, boiled down: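 BHK cells stably co-expressing human calcitonin receptor and a CRE-luciferase reporter, seeded the day before, were exposed to 7-fold serial dilutions (7 concentrations, often starting near 10 nM) in DMEM/HEPES/1% ovalbumin buffer for 3 h at 37 °C. Luminescence was then read after SteadyLite Plus addition.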

Starred links: 1 amine or outer side, 2 acyl side, 3 side chain; linkers in the order of their positions; H or OH if unused. Residues, ends and D or L forms follow the SMILES beside them. *: point of attachment. C18 diacid = O=C(O)CCCCCCCCCCCCCCCCC(=O)*; γGlu = O=C(O)[C@H](CCC(=O)[*:2])N[*:1]

T1 sequence (O60896 24-148, one chain of several): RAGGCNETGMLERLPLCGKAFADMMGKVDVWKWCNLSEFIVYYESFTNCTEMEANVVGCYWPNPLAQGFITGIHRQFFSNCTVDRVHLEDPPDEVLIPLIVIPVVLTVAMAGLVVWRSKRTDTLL

With `CC[C@H](C)[C@H](NC(=O)[C@@H]1CCCN1C(=O)CNC(=O)[C@H](Cc1ccccc1)NC(=O)[C@H](Cc1c[nH]cn1)NC(=O)[C@H](Cc1c[nH]cn1)NC(=O)[C@H](CC(C)C)NC(=O)[C@H](Cc1ccccc1)NC(=O)[C@H](CCC(=O)O)NC(=O)[C@H](C)NC(=O)[C@H](CC(C)C)NC(=O)[C@H](CCCNC(=N)N)NC(=O)[C@H](CCC(N)=O)NC(=O)[C@@H](NC(=O)[C@H](CCC(N)=O)NC(=O)[C@H](C)NC(=O)[C@@H](NC(=O)[C@H](CO)NC(=O)[C@H](CC(C)C)NC(=O)[C@H](Cc1c[nH]cn1)NC(=O)[C@H](CO)NC(=O)[C@H](C)NC(=O)CC[C@H](NC(=O)CC[C@H](NC(=O)CCCCCCCCCCCCCCCCC(=O)O)C(=O)O)C(=O)O)[C@@H](C)O)[C@@H](C)O)C(=O)N[C@@H](CC(C)C)C(=O)N1CCC[C@H]1C(=O)N1CCC[C@H]1C(=O)N[C@H](C(=O)N[C@@H](CC(=O)O)C(=O)N[C@H](C(=O)NCC(=O)N[C@@H](CO)C(=O)N[C@@H](CCC(=O)O)C(=O)N[C@H](C(=O)N[C@@H](Cc1ccc(O)cc1)C(N)=O)[C@@H](C)O)C(C)C)[C@@H](C)O` [Compound 32, N^1-[(4S)-4-carboxy-4-[[(4S)-4-carboxy-4-(17-carboxyheptadecanoylamino)butanoyl]amino]butanoyl]-[Ala1,Ser2,His3,Leu4,Ser5,Ala7,Gln8,Glu14,His17,Pro25,Pro28,Pro29,Asp31,Glu35],des-(19-22)-human amylin] ({C18 diacid-γGlu-γGlu}-ASHLSTAQTQRLAEFLHHFGPILPPTDVGSETY-NH2), the concentration for a half-maximal effect (EC50) in experiment [1] is 5.71 pM; in experiment [2], 15.7 pM.
As to `CC[C@H](C)[C@H](NC(=O)[C@H](C)NC(=O)CNC(=O)[C@H](Cc1ccccc1)NC(=O)[C@@H]1CCCN1C(=O)[C@H](CC(=O)O)NC(=O)[C@H](CO)NC(=O)[C@H](CO)NC(=O)[C@H](Cc1c[nH]cn1)NC(=O)[C@H](Cc1c[nH]cn1)NC(=O)[C@H](CC(C)C)NC(=O)[C@H](Cc1ccccc1)NC(=O)[C@H](CCC(=O)O)NC(=O)[C@H](C)NC(=O)[C@H](CC(C)C)NC(=O)[C@H](CCCNC(=N)N)NC(=O)[C@H](CCC(N)=O)NC(=O)[C@@H](NC(=O)[C@H](CCC(N)=O)NC(=O)[C@H](CC(C)C)NC(=O)[C@@H](NC(=O)[C@H](CO)NC(=O)[C@H](CC(C)C)NC(=O)[C@H](Cc1c[nH]cn1)NC(=O)[C@H](CO)NC(=O)[C@H](C)NC(=O)CC[C@H](NC(=O)CCCCCCCCCCCCCCCCC(=O)O)C(=O)O)[C@@H](C)O)[C@@H](C)O)C(=O)N1CCC[C@H]1C(=O)N[C@@H](CO)C(=O)N[C@@H](CO)C(=O)N[C@H](C(=O)N[C@@H](CC(=O)O)C(=O)N[C@H](C(=O)NCC(=O)N1CCC[C@H]1C(=O)N[C@@H](CC(=O)O)C(=O)N[C@H](C(=O)N1CCC[C@H]1C(N)=O)[C@@H](C)O)C(C)C)[C@@H](C)O` [Compound 33, N^1-[(4S)-4-carboxy-4-(17-carboxyheptadecanoylamino)butanoyl]-[Ala1,Ser2,His3,Leu4,Ser5,Leu7,Gln8,Glu14,His17,Asp21,Pro22,Pro27,Asp31,Pro34,Asp35,Pro37]-human amylin] ({C18 diacid-γGlu}-ASHLSTLQTQRLAEFLHHSSDPFGAIPSSTDVGPDTP-NH2), the 50% effective concentration (EC50) is 1.69 pM in experiment [1] and 1.74 pM in experiment [2].
For `CC[C@H](C)[C@H](NC(=O)[C@@H]1CCCN1C(=O)CNC(=O)[C@H](Cc1ccccc1)NC(=O)[C@H](CC(N)=O)NC(=O)[C@H](CC(=O)O)NC(=O)[C@H](CO)NC(=O)[C@H](CO)NC(=O)[C@H](Cc1c[nH]cn1)NC(=O)[C@H](Cc1c[nH]cn1)NC(=O)[C@H](CC(C)C)NC(=O)[C@H](Cc1ccccc1)NC(=O)[C@H](CCC(=O)O)NC(=O)[C@H](C)NC(=O)[C@H](CC(C)C)NC(=O)[C@H](CCCNC(=N)N)NC(=O)[C@H](CCC(N)=O)NC(=O)[C@@H](NC(=O)[C@H](CCC(N)=O)NC(=O)[C@H](CC(C)C)NC(=O)[C@@H](NC(=O)[C@H](CO)NC(=O)[C@H](CC(C)C)NC(=O)[C@H](Cc1c[nH]cn1)NC(=O)[C@H](CO)NC(=O)[C@H](C)NC(=O)CC[C@H](NC(=O)CCCCCCCCCCCCCCCCC(=O)O)C(=O)O)[C@@H](C)O)[C@@H](C)O)C(=O)N[C@@H](CC(C)C)C(=O)N1CCC[C@H]1C(=O)N1CCC[C@H]1C(=O)N[C@H](C(=O)N[C@@H](CC(=O)O)C(=O)N[C@H](C(=O)NCC(=O)N[C@@H](CO)C(=O)N[C@@H](CC(N)=O)C(=O)N[C@H](C(=O)N1CCC[C@H]1C(N)=O)[C@@H](C)O)C(C)C)[C@@H](C)O` [Compound 34, N^1-[(4S)-4-carboxy-4-(17-carboxyheptadecanoylamino)butanoyl]-[Ala1,Ser2,His3,Leu4,Ser5,Leu7,Gln8,Glu14,His17,Asp21,Pro25,Pro28,Pro29,Asp31,Pro37]-human amylin] ({C18 diacid-γGlu}-ASHLSTLQTQRLAEFLHHSSDNFGPILPPTDVGSNTP-NH2) the same measures were 1.91 pM and 2.06 pM.
Turning to `CC[C@H](C)[C@H](NC(=O)[C@@H]1CCCN1C(=O)CNC(=O)[C@H](Cc1ccccc1)NC(=O)[C@H](Cc1c[nH]cn1)NC(=O)[C@H](Cc1c[nH]cn1)NC(=O)[C@H](CC(C)C)NC(=O)[C@H](Cc1ccccc1)NC(=O)[C@H](CCC(=O)O)NC(=O)[C@H](C)NC(=O)[C@H](CC(C)C)NC(=O)[C@H](CCCNC(=N)N)NC(=O)[C@H](CCC(N)=O)NC(=O)[C@@H](NC(=O)[C@H](CCC(N)=O)NC(=O)[C@H](CC(C)C)NC(=O)[C@@H](NC(=O)[C@H](CO)NC(=O)[C@H](CC(C)C)NC(=O)[C@H](Cc1c[nH]cn1)NC(=O)[C@H](CO)NC(=O)[C@H](C)NC(=O)CC[C@H](NC(=O)CCCCCCCCCCCCCCCCC(=O)O)C(=O)O)[C@@H](C)O)[C@@H](C)O)C(=O)N[C@@H](CC(C)C)C(=O)N1CCC[C@H]1C(=O)N1CCC[C@H]1C(=O)N[C@H](C(=O)N[C@@H](CC(=O)O)C(=O)N[C@H](C(=O)NCC(=O)N[C@@H](CO)C(=O)N[C@@H](CCC(=O)O)C(=O)N[C@H](C(=O)N1CCC[C@H]1C(N)=O)[C@@H](C)O)C(C)C)[C@@H](C)O` [Compound 35, N^1-[(4S)-4-carboxy-4-(17-carboxyheptadecanoylamino)butanoyl]-[Ala1,Ser2,His3,Leu4,Ser5,Leu7,Gln8,Glu14,His17,Pro25,Pro28,Pro29,Asp31,Glu35,Pro37],des-(19-22)-human amylin] ({C18 diacid-γGlu}-ASHLSTLQTQRLAEFLHHFGPILPPTDVGSETP-NH2), the figures for the EC50 in experiment [1] and in experiment [2] were 1.6 pM and 2.26 pM, respectively.

As usually defined, the EC50 is the midpoint of the concentration-response curve.
